# Laboratory results taken from patent EP0626016B1, “[…] […]” (BRITISH TECHNOLOGY GROUP LIMITED, priority 1992, dated 1993).
# Where two headings read alike, the source gives them in different places.
# Biological target: T1, HRP Type VIA (Armoracia rusticana, UniProt P00433)
# T1 sequence (P00433 31-338): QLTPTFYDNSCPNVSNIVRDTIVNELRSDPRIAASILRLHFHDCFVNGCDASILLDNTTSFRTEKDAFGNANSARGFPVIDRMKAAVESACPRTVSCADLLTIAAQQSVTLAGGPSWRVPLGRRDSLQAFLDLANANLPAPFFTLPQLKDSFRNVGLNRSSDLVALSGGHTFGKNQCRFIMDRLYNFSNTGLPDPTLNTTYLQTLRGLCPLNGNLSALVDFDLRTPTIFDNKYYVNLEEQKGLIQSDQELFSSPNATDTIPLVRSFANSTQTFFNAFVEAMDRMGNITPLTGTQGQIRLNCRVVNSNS
# Conditions: for (d) Signal: Background: ratio (control = with no enhancer): control value in brackets not reported
"(a) Decrease in background (without HRP with test cpd.) (0.01 mg/ml, 10µl test compound)","(b) Increase in signal (with HRP, with test cpd.) (0.01 mg/ml, 10µl test compound)","(c) Increase in signal: background ratio (0.01 mg/ml, 10µl test compound)","(a) Decrease in background (without HRP with test cpd.) (0.1 mg/ml, 10µl test compound)","(b) Increase in signal (with HRP, with test cpd.) (0.1 mg/ml, 10µl test compound)","(a) Decrease in background (without HRP with test cpd.) (1 mg/ml, 10µl test compound)","(b) Increase in signal (with HRP, with test cpd.) (1 mg/ml, 10µl test compound)","(c) Increase in signal: background ratio (1 mg/ml, 10µl test compound)","(d) Signal: Background: ratio (control = with no enhancer) (0.01 mg/ml, 10µl test compound)","(d) Signal: Background: ratio (control = with no enhancer) (0.1 mg/ml, 10µl test compound)","(d) Signal: Background: ratio (control = with no enhancer) (1 mg/ml, 10µl test compound)",Compound,"(c) Increase in signal: background ratio (0.1 mg/ml, 10µl test compound)",(a) Decrease in background (without HRP with test cpd.),"(b) Increase in signal (with HRP, with test cpd.)",(c) Increase in signal: background ratio
Y,N,N (N = no),Y,N,Y,N,N (N = no),,,,2-benzimidazolylphenylboronic acid [Compound 1046],N (N = no),,,
,,,,,,,,,,,"C[Si](C)(C)c1ccc(B(O)O)cc1 [Compound 1001, 4-(trimethylsilyl) benzeneboronic acid]",,Y,N and Y,Y (key: Column (c) shows whether there was an increase in the signal:background ratio by over 25% of the control value (Y = yes; N = no)
Y,N,N (N = no),Y,N,Y,N,N (N = no),2.5,3.4,0.7 (2.3),"OB(O)c1cccc2ccccc12 [Compound 1002, 1-naphthaleneboronic acid]",Y (Column (c) shows whether there was an increase in the signal:background ratio by over 25% of the control value (Y = yes),,,
Y,N,N (N = no),Y,N,Y,N,N (N = no),1.9,2.2,1.7 (2.3),"OB(O)c1ccccc1-c1ccccc1 [Compound 1004, 2-biphenylboronic acid]",N (N = no),,,
Y,N,N (N = no),Y,N,Y,N,N (N = no),2.1,2.5,1.8 (2.1),"OB(O)c1cccc2c1Sc1ccccc1S2 [Compound 1007, 1-thianthreneboronic acid]",N (N = no),,,
Y,N,N (N = no),Y,N,Y,N,N (N = no),1.6,1.5,1.3 (2.5),"OB(O)c1cccc2c1oc1ccccc12 [Compound 1008, 4-dibenzofuranboronic acid]",N (N = no),,,
Y,N,N (N = no),Y,N,Y,N,N (N = no),1.9,2.5,0.6 (1.8),"Cc1ccccc1B(O)O [Compound 1009, 2-tolueneboronic acid]",Y (Column (c) shows whether there was an increase in the signal:background ratio by over 25% of the control value (Y = yes),,,
,,,,,,,,,,,"c1ccc([B-](c2ccccc2)(c2ccccc2)c2ccccc2)cc1 [Compound 1016, tetraphenylboron sodium]",,Y,N,N (key: column (a) shows whether the test compound lowered the light output from the luminol-hydrogen peroxide solution (Y = yes; N = no)
Y,N,N (N = no),Y,Y,Y,N,N (N = no),1.8,2.5,1.8 (1.8),"OCC(CO)(CO)COB(O)O [Compound 1017, pentaerythritol borate]",Y (Column (c) shows whether there was an increase in the signal:background ratio by over 25% of the control value (Y = yes),,,

Compound,"(a) Decrease in background (without HRP with test cpd.) (0.01 mg/ml, 10µl test compound)","(b) Increase in signal (with HRP, with test cpd.) (0.01 mg/ml, 10µl test compound)","(c) Increase in signal: background ratio (0.01 mg/ml, 10µl test compound)","(a) Decrease in background (without HRP with test cpd.) (0.1 mg/ml, 10µl test compound)","(b) Increase in signal (with HRP, with test cpd.) (0.1 mg/ml, 10µl test compound)","(a) Decrease in background (without HRP with test cpd.) (1 mg/ml, 10µl test compound)","(b) Increase in signal (with HRP, with test cpd.) (1 mg/ml, 10µl test compound)","(c) Increase in signal: background ratio (1 mg/ml, 10µl test compound)","(d) Signal: Background: ratio (control = with no enhancer) (0.01 mg/ml, 10µl test compound)","(d) Signal: Background: ratio (control = with no enhancer) (0.1 mg/ml, 10µl test compound)","(d) Signal: Background: ratio (control = with no enhancer) (1 mg/ml, 10µl test compound)","(c) Increase in signal: background ratio (0.1 mg/ml, 10µl test compound)",(a) Decrease in background (without HRP with test cpd.),"(b) Increase in signal (with HRP, with test cpd.)",(c) Increase in signal: background ratio
"COc1ccc(Br)cc1B(O)O [Compound 1003, 5-bromo-2-methoxybenzeneboronic acid]",Y,N,Y (Column (c) shows whether there was an increase in the signal:background ratio by over 25% of the control value (Y = yes),Y,N,Y,N,N (N = no),8.6,12.1,2.6 (2.3),Y (Column (c) shows whether there was an increase in the signal:background ratio by over 25% of the control value (Y = yes),,,
OB(O)c1cc(N=Nc2cccc(C(F)(F)F)c2)ccc1O [Compound 1005],N,Y,Y (Column (c) shows whether there was an increase in the signal:background ratio by over 25% of the control value (Y = yes),N,Y,Y,N,N (N = no),2.7,2.9,2.4 (2.1),Y (Column (c) shows whether there was an increase in the signal:background ratio by over 25% of the control value (Y = yes),,,
"OB(O)c1ccc2cc(O)ccc2c1 [Compound 1006, 6-hydroxy-2-naphthaleneboronic acid]",Y,N,Y (Column (c) shows whether there was an increase in the signal:background ratio by over 25% of the control value (Y = yes),Y,N,Y,N,N (N = no),5.8,1.5,0.3 (1.8),N (N = no),,,
"OB(O)c1ccc(Oc2ccccc2)cc1 [Compound 1010, 4-(phenoxy)benzeneboronic acid]",Y,N,N (N = no),Y,N,Y,N,Y (Column (c) shows whether there was an increase in the signal:background ratio by over 25% of the control value (Y = yes),3.0,4.6,5.0 (2.5),Y (Column (c) shows whether there was an increase in the signal:background ratio by over 25% of the control value (Y = yes),,,
"c1ccc(B2OCCCO2)cc1 [Compound 1012, 2-phenyl-1,3,2-dioxaborinane]",N,Y,N (N = no),N,N,Y,N,Y (Column (c) shows whether there was an increase in the signal:background ratio by over 25% of the control value (Y = yes),2.2,2.2,17.1 (2.5),N (N = no),,,
